Consider one molecule from patent US20240190866A1, “POLYHYDROXYLATED INDOLIZIDINE AND PYRROLIZIDINE DERIVATIVES AND USES THEREOF” (Academia Sinica, priority 2021, published 2024).

One data set deals with MDA-MB-231 cells. As to the kind of experiment: Anti-proliferative activity assay (CellTiter-Glo). The data set is classed as cell-based, human. To be noted: 48 h. Here is the method: (§1) Human liver cancer HepG2 cells and Huh7 cells, breast cancer MDA-MB-231 cells, pancreatic cancer PANC-1 cells, and non-small cell lung (NSCL) cancer H1975 cells were maintained in Dulbecco's Modified Eagle Medium supplemented containing 10% fetal bovine serum (FBS), 100 units/ml penicillin and […] streptomycin in 37° C. incubator with 5% CO2.
(§2) Anti-proliferative activity of HepG2, Huh7 or PANC-1 cells was determined by 3-(4,5-dimethylthiazol-2-yl)-2,5-diphenyltetrazolium bromide (MTT) assay, while that of H1975 or MDA-MB-231 cells was determined by luminescent assay with the aid of commercial kit CellTiter-Glo® (Promega).
(§3) For H1975 and MDA-MB-231, cells were respectively seeded at 5×10^3 cells/well in 96-well plates and maintained for 14-16 hours. Cells were treated with dimethylsulfoxide (DMSO) or test compounds in varied concentrations for 48 h. Cell viability was monitored using Cell-TiterGlo (Promega), a kit that measures the quantity of ATP present in the cell culture, an indicator of metabolically active cells. The IC50 values of death cell lines were calculated accordingly.

In a further data set the test system is H1975 cells. As to the kind of experiment: Anti-proliferative activity assay (CellTiter-Glo). The data set is classed as cell-based, human. To be noted: 48 h. The protocol:
as §1, §2, §3

Data set [1] can be described thus: Serum biochemistry assay in Huh7 xenograft mice. Conditions: serum, 30 mg/kg i.p., twice a week. The data set is classed as in vivo, NOD-SCID mice. The protocol: All blood specimens were collected in tubes and were left at 25° C. for 30 min to clot and centrifuged for 10 min at 1200 g. The concentrations of the following biochemical serum analytes collected were measured with FUJI DRI-CHEM 500i analyzer (FUJIFILM Corp., Tokyo, Japan) using the manufacturer's reagents and according to the manufacturer's instructions: Alanine Aminotransferase ALT), Aspartate Aminotransferase (AST), Blood Urea Nitrogen (BUN), Creatinine (CRE) and Total Bilirubin (TBIL).
HCC xenografts were established in 5-6 weeks old NOD-SCID mice by subcutaneous inoculation of about 5×10^6 Huh7 cells suspended in 50 μL PBS+50 μL, Matrigel (Corning, 394230) in the left and right flanks of each mouse. After one week of inoculation, tumors were palpable and the mice were assigned randomly to 1 of 4 treatment groups. Group 1 (vehicle control group, n=6) mice only received a vehicle solution containing Kolliphor EL (Sigma Aldrich, C5135), 99.9% ethanol and water in a ratio of 1:1:6. Groups 2, 3, 4 and 5 mice were intraperitoneally injected with the test compound (e.g., compound ACK900, ACK901, or ACK902) (30 mg/kg, ip, n=7/group) or sorafenib (30 mg/kg, ip, n=6/group), twice per week for 25 days. The tumor volume was calculated by the formula of a ratioinal ellipsoid: [0.5236×short axis) m1^2×(long axis)m^2], and the tumor volume was measured twice per week. All mice were sacrificed at 27 days after the treatment started. Tumor tissues were isolated, photographed and weighted.
In vivo tumor growth inhibition studies in human Huh7 xenograft rodents were performed in accordance with procedures as described in the “Material and Method” section. Xenograft tumors were generated by implanting Huh7 cells (5×10^6) subcutaneously into the left and right flanks of each NOD-SCID mouse. Starting on the 7th day after the inoculation of Huh7 cells, the mice were injected with ACK900, ACK901, ACK902 or sorafenib intraperitoneally (i.p.) at a dose of 30 mg/kg and twice a week for 34 days.

Data set [2] has as its system HepG2 cells. As to the kind of experiment: Surface binding of lectin by fluorescence microscopy. The data set is classed as cell-based, human. Conditions: HepG2, 10 μM, 48 h.
For data set [3], the system named is all cancer cell lines (HepG2, Huh7, PANC-1, H1975, MDA-MB-231). The data set can be described thus: Anti-proliferative activity, pooled statement over all cancer cell lines. The data set is classed as cell-based, human. To be noted: read-out: half maximum inhibitory concentration (IC50), range in all cancer cell lines. The protocol:
as §2
Cancer cells including HepG2, Huh7 and PANC-1 cells were respectively seeded at 10^4, 4×10^3, and 5×10^3 cells/well in 96-well plates and maintained for 14-16 hours. Cells were treated with dimethylsulfoxide (DMSO) or test compounds in varied concentrations for 72 h. Cells were then washed with PBS twice, added a medium containing 3-(4,5-dimethylthiazol-2-yl)-2,5-diphenyltetrazolium bromide (MTT) at a final concentration of 0.5 mg/mL, and incubated for 4 h at 37° C. in a humidified incubator containing 5% CO2 in air. Cells having functional succinate dehydrogenase of mithchondria would convert MTT to formazan. Then, the medium was replaced with 100 μL of DMSO for 30 min at room temperature, and the 96-well plate was read by an ELISA reader at 550 nm to get the absorbance density values. The IC50 values of death cell lines were calculated accordingly.
as §3

For data set [4], the target named is human Golgi α-mannosidase II (α-hGMII) (Homo sapiens (Human), UniProt Q16706). The data set can be described thus: Golgi α-mannosidase II (α-hGMII) activity assay, 4-MU-α-D-mannopyranoside substrate. The data set is classed as biochemical. Conditions: pH 7.0, 37° C., 2 h. The protocol:
Compounds were diluted to give the final concentration of 100 μM and mixed with 4-MU-α-D-mannopyranoside as substrate and human Golgi α-mannosidase II in phosphate buffer (0.1 M Sodium phosphate dibasic, pH 7.0) or human lysosomal α-mannosidase in citric phosphate buffer (0.1 M Sodium phosphate monobasic monohydrate, 0.5 mM citric acid monohydrate, pH 4.6). The assay was carried out at 37° C. for a certain time (1 h for α-hLM, 2 h for α-hGMII). Stop solution (0.5 M K2CO3(aq), pH 10.8) was then added to the reactions and the fluorescence was determined at 355 nm excitation and 460 nm emission (SpectraMax M5, Molecular Devices). Inhibition was performed as relative enzyme activity to control. The active compounds were selected for libraries preparation and further tested at lower concentration to determine their IC50 values. The assays performed in 384-wells of the microtiter plates.

Data set [5] concerns HepG2 cells. As to the kind of experiment: N-glycan profiling by mass spectrometric analysis. Format: cell-based, human. Conditions: HepG2, 0.1 to 10 μM, 72 h. The protocol: (§4) To this purpose, HepG2 and Huh7 cells were treated with ACK900 in dose-dependent manner (0.1 to 10 μM) for 72 h and N-glycan profiling was determined using mass spectrometric analysis. (FIGS. 1B and 1C)), This method was based on matching the experimental masses with the predicted masses of the glycans from the CFG carbohydrate database. The individual glycoforms were quantified and calculated for their proportions in all the glycoforms. Most N-glycans of untreated HepG2 and Huh7 were dominated by complex-type glycans containing sialic acids and fucoses. High-mannose or hybrid-type glycans were found in a relatively low percentage. […] These glycoform data from MS analysis were consistent with the surface binding of lectin using fluorescence microscopy.

Another data set has as its system Huh7 cells. As to the kind of experiment: N-glycan profiling by mass spectrometric analysis. The data set is classed as cell-based, human. To be noted: Huh7, 0.1 to 10 μM, 72 h. Here is the method:
as §4

human Golgi α-mannosidase II (α-hGMII), sequence (Q16706 whole entry): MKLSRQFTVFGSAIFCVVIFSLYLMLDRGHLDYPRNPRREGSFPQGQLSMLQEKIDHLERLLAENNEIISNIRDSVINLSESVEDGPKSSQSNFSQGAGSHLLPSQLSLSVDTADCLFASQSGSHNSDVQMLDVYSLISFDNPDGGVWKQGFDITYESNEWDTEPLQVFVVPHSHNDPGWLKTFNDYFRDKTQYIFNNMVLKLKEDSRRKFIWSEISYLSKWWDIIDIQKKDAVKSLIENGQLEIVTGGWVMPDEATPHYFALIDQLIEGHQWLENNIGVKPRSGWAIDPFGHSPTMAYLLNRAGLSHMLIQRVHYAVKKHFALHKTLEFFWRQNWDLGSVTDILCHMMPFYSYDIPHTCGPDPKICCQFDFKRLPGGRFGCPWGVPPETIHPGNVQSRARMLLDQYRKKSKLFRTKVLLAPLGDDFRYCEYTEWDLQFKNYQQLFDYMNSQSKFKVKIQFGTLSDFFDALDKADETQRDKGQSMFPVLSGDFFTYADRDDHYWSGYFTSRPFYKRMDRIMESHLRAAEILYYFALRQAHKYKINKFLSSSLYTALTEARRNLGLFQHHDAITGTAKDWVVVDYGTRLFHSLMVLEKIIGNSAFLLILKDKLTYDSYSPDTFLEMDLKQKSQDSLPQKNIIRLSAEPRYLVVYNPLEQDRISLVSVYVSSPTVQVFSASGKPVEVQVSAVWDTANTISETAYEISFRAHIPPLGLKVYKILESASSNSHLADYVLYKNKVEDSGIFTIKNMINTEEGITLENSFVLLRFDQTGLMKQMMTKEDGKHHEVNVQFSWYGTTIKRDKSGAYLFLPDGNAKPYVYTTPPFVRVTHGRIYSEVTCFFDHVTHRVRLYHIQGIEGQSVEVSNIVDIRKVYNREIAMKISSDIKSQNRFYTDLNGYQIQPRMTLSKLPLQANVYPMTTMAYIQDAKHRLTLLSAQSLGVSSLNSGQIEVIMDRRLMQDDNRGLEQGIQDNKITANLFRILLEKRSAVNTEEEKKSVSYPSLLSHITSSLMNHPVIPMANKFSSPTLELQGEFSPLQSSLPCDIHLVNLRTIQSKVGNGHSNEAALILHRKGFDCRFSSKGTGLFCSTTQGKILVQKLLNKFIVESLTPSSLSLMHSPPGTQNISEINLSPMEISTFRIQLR

Take `CCC[C@H]1CC[C@H](c2ccc(NC(=S)NC[C@@H]3[C@@H](O)[C@@H](O)[C@H]4[C@H](O)CCCN43)cc2)CC1` [ACK900]: the IC50 in the data set on MDA-MB-231 cells came out at 4.6 µM. The same molecule returned an IC50 in the data set on H1975 cells of 13.9 µM. In data set [1], the ALT came out at 101.57 ± 70.63 U/L, the AST was 223.42 ± 157.00 U/L, the BUN came to 22.37 ± 4.41 mg/dL and the CRE amounted to 0.33 ± 0.05 mg/dL. Also, in data set [1], the TBIL was found to be 0.55 ± 0.18 mg/dL. In the data set with HepG2 cells [2], the “surface binding of Concanavalin A (ConA)” value is given as “markedly increased” and the “surface binding of galectin-1 (Gal1)” value is “substantially decreased”. In addition, in data set [3], the IC50 lay within 0.3 to 19.1 µM. The molecule further registered an IC50 in data set [4] of 0.1 µM. Besides, the N-glycan pattern entry in the data set with HepG2 cells [5] was “significant shift of N-glycopatterns from complex chains to the hybrid-type glycan”. Also, the N-glycan pattern result with Huh7 cells is “significant shift of N-glycopatterns from complex chains to the hybrid-type glycan”.
